# From patent publication US9932637B2, “Genetic polymorphisms associated with cardiovascular disorders and drug response, methods of detection and uses thereof” (CELERA CORPORATION, priority 2003, dated 2018)
# Values joined by “and” are separate entries in the source; they are usually repeats but may differ in a detail not shown here. Identical values can stand only once.
# System: patients with prior myocardial infarction (CARE study)
# Test: CARE aligned analysis (prospective and case/control design, white males): association of genotypes with pravastatin efficacy (Tables 13, 15)
# Format: in vivo, human
# Protocol: The data presented in Table 8 based on an association of genotypes with pravastatin efficacy of the CARE samples were further analyzed and presented in Table 13. The further analysis was performed to align the data obtained from the analysis of the CARE samples, which was a prospective study, to the analysis of the WOSCOP samples, which was a case/control study. Table 13 also presents an analysis of the association of genotypes with pravastatin efficacy in the WOSCOPs samples. Relative to the analysis performed on the data presented in Table 8, there are two significant differences to determine if the SNP influenced pravastatin efficacy. Data obtained from the CARE samples were separated by study design into two groups, those in the prospective study design group and those in the case/control study design group. The original care study contained 16 protocol defined cardiovascular disease defined endpoints and 150 other phenotypes. […] The control groups used to compare the data were also divided into two groups, the “all possible” control group and the “cleaner” control group. […] Because the participants in the WOSCOPs trial were all white males, only data obtained from white males in the CARE study were analysed. Data from the “all possible” and “cleaner” controls were compared to data obtained from the cases in the prospective study design while only data from “cleaner” controls were compared to cases in the case/control study design. The data from the case/control cohorts were analysed using conditional logistic regression (as opposed to logistic regression used for the original anaylsis).
# The anaylsis was refined as described for both Tables 13 and 14.
# [1] = CD6 hCV2553030, CARE, Case/Control, F MI/SD/NF MI
# [2] = CD6 hCV2553030, CARE, Prospective, F MI/SD/NF MI
# [3] = CD6 hCV25922320, CARE, Case/Control, F MI/SD/NF MI
# [4] = CD6 hCV25922320, CARE, Case/Control, F MI/SD/NF MI, listed as Pravastatin
# [5] = CD6 hCV25922320, CARE, Prospective, F MI/SD/NF MI
# [6] = CD163 hCV25591528, CARE Case/Control, F&NF MI
# [7] = CD163 hCV25591528, CARE Prospective, F&NF MI, listed as Pravastatin
# [8] = CD163 hCV25591528, CARE, Case/Control, F MI/SD/NF MI, listed as Pravastatin
# [9] = CD163 hCV25591528, CARE, Prospective, F MI/SD/NF MI
# [10] = COL2A1 hCV3276198, CARE Case/Control, F&NF MI
# [11] = COL11A1 hCV8400671, CARE Case/Control, F&NF MI
# [12] = CR1 hCV25598594, CARE Case/Control, F&NF MI
# [13] = CR1 hCV25598594, CARE Prospective, F&NF MI
# [14] = CR1 hCV25598594, CARE, Case/Control, F MI/SD/NF MI
# [15] = CR1 hCV25598594, CARE, Prospective, F MI/SD/NF MI
# [16] = CXCL16 hCV8718197, CARE Prospective, F&NF MI
# [17] = CXCL16 hCV8718197, CARE, Case/Control, F MI/SD/NF MI
# [18] = CXCL16 hCV8718197, CARE, Prospective, F MI/SD/NF MI
# [19] = CYBA hCV2038, CARE Case/Control, F&NF MI
# [20] = ELN hCV1253630, CARE, Case/Control, F MI/SD/NF MI
# [21] = ELN hCV1253630, CARE, Prospective, F MI/SD/NF MI
# [22] = F7 hCV783138, CARE Case/Control, F&NF MI
structure (smiles),measurement,setting,value
CC[C@H](C)C(=O)O[C@H]1C[C@H](O)C=C2C=C[C@H](C)[C@H](CC[C@@H](O)C[C@@H](O)CC(=O)O)[C@H]21 [pravastatin],"Pravastatin vs placebo odds ratio, 2 rare alleles","CAPN10 hCV25614016, CARE, Prospective, F MI/SD/NF MI",0.90 and 0.78
same,OR of fatal MI/sudden death/non-fatal MI in the presence of statin treatment,"CARE, hCV2442143, 0 rare alleles",0.42
same,OR of fatal MI/sudden death/non-fatal MI in the presence of statin treatment,"CARE, hCV2442143, one rare allele, not statistically significant",0.78
same,OR of fatal MI/sudden death/non-fatal MI in the presence of statin treatment,"CARE, hCV2442143, two rare alleles, not statistically significant",1.16
same,"2 Rare Alleles n/total, Pravastatin Patients","CD6 hCV2553030, CARE Case/Control, F&NF MI",2/91 and 2/63
same,"2 Rare Alleles n/total, Pravastatin Patients","CD6 hCV2553030, CARE Prospective, F&NF MI",2/92 and 2/64
same,"Pravastatin vs placebo odds ratio, 0 rare alleles",[1],0.97 and 0.92
same,"Pravastatin vs placebo odds ratio, 1 rare allele",[1],0.80 and 0.68
same,"Pravastatin vs placebo odds ratio, 2 rare alleles",[1],0.06 and 0.04
same,"Pravastatin vs placebo odds ratio, 0 rare alleles",[2],0.97 and 0.88
same,"Pravastatin vs placebo odds ratio, 1 rare allele",[2],0.81 and 0.72
same,"Pravastatin vs placebo odds ratio, 2 rare alleles",[2],0.06 and 0.04
same,"2 rare alleles n/total (%), pravastatin patients",[3],(17.9%)
same,"Pravastatin vs placebo odds ratio, 2 rare alleles",[3],1.44
same,"Pravastatin vs placebo odds ratio, 0 rare alleles",[4],0.57 and 0.49
same,"Pravastatin vs placebo odds ratio, 1 rare allele",[4],1.39 and 1.36
same,"Pravastatin vs placebo odds ratio, 2 rare alleles",[4],1.09
same,"2 rare alleles n/total (%), pravastatin patients",[5],(17.9%)
same,"Pravastatin vs placebo odds ratio, 0 rare alleles",[5],0.58 and 0.51
same,"Pravastatin vs placebo odds ratio, 1 rare allele",[5],1.39 and 1.27
same,"Pravastatin vs placebo odds ratio, 2 rare alleles",[5],1.09 and 1.17
same,"2 Rare Alleles n/total, Pravastatin Patients",[6],4/24 and 4/21
same,"Pravastatin vs placebo odds ratio, 2 rare alleles",[6],1.23 and 0.64
same,"Pravastatin vs placebo odds ratio, 2 rare alleles","CD163 hCV25591528, CARE Prospective, F&NF MI",0.59
same,"2 Rare Alleles n/total, Pravastatin Patients",[7],4/25 and 4/21
same,"Pravastatin vs placebo odds ratio, 2 rare alleles",[7],1.14
same,"Pravastatin vs placebo odds ratio, 2 rare alleles","CD163 hCV25591528, CARE, Case/Control, F MI/SD/NF MI",0.99
same,"Pravastatin vs placebo odds ratio, 0 rare alleles",[8],0.96 and 0.88
same,"Pravastatin vs placebo odds ratio, 1 rare allele",[8],0.29 and 0.27
same,"Pravastatin vs placebo odds ratio, 2 rare alleles",[8],1.97
same,"Pravastatin vs placebo odds ratio, 0 rare alleles",[9],0.97 and 0.86
same,"Pravastatin vs placebo odds ratio, 1 rare allele",[9],0.30 and 0.28
same,"Pravastatin vs placebo odds ratio, 2 rare alleles",[9],0.88
same,"2 Rare Alleles (%), Pravastatin Patients",[10],(35.0%)
same,"2 Rare Alleles n/total, Pravastatin Patients",[10],7/20
same,"2 Rare Alleles (%), Pravastatin Patients",[11],(1.9%)
same,"2 Rare Alleles n/total, Pravastatin Patients",[11],1/52
same,"2 Rare Alleles (%), Pravastatin Patients",[12],(0.0%)
same,"2 Rare Alleles n/total, Pravastatin Patients",[12],0/0
same,"2 Rare Alleles (%), Pravastatin Patients",[13],(0.0%)
same,"2 Rare Alleles n/total, Pravastatin Patients",[13],0/0
same,"Pravastatin vs placebo odds ratio, 0 rare alleles",[14],0.86 and 0.78
same,"Pravastatin vs placebo odds ratio, 1 rare allele",[14],0.09 and 0.07
same,"Pravastatin vs placebo odds ratio, 0 rare alleles",[15],0.87 and 0.78
same,"Pravastatin vs placebo odds ratio, 1 rare allele",[15],0.08 and 0.06
same,"2 Rare Alleles n/total, Pravastatin Patients","CXCL16 hCV8718197, CARE Case/Control, F&NF MI",32/233 and 32/160
same,"2 Rare Alleles (%), Pravastatin Patients",[16],(19.8%)
same,"2 Rare Alleles n/total, Pravastatin Patients",[16],32/237 and 32/162
same,"2 rare alleles n/total (%), pravastatin patients",[17],(17.4%)
same,"Pravastatin vs placebo odds ratio, 0 rare alleles",[17],0.38
same,"Pravastatin vs placebo odds ratio, 1 rare allele",[17],0.91
same,"Pravastatin vs placebo odds ratio, 2 rare alleles",[17],1.12
same,"2 rare alleles n/total (%), pravastatin patients",[18],(17.2%)
same,"Pravastatin vs placebo odds ratio, 0 rare alleles",[18],0.38
same,"Pravastatin vs placebo odds ratio, 1 rare allele",[18],0.92
same,"Pravastatin vs placebo odds ratio, 2 rare alleles",[18],1.06
same,"2 Rare Alleles (%), Pravastatin Patients",[19],(16.9%)
same,"2 Rare Alleles n/total, Pravastatin Patients",[19],23/136
same,"2 rare alleles n/total (%), pravastatin patients",[20],(18.3%)
same,"Pravastatin vs placebo odds ratio, 0 rare alleles",[20],0.53
same,"Pravastatin vs placebo odds ratio, 1 rare allele",[20],0.70
same,"Pravastatin vs placebo odds ratio, 2 rare alleles",[20],1.64
same,"2 rare alleles n/total (%), pravastatin patients",[21],(18.2%)
same,"Pravastatin vs placebo odds ratio, 0 rare alleles",[21],0.52
same,"Pravastatin vs placebo odds ratio, 1 rare allele",[21],0.71
same,"Pravastatin vs placebo odds ratio, 2 rare alleles",[21],1.60
same,"2 Rare Alleles n/total, Pravastatin Patients","ELN hCV1253830, CARE Case/Control, F&NF MI",28/204 and 28/133
same,"2 Rare Alleles n/total, Pravastatin Patients","ELN hCV1253830, CARE Prospective, F&NF MI",28/208 and 28/136
same,"2 Rare Alleles (%), Pravastatin Patients",[22],(7.7%)
same,"2 Rare Alleles n/total, Pravastatin Patients",[22],1/13 and 1/9
same,"2 Rare Alleles (%), Pravastatin Patients","F7 hCV783138, CARE Prospective, F&NF MI",(7.7%)
